Patent publication US20090099167A1, “Organic compounds” (Novartis Institutes for Biomedical Research, priority 2004, published 2009)

What was measured:
c-Kit = biological target: T1, c-Kit (Homo sapiens, UniProt P10721); experiment: c-kit kinase inhibition; type: biochemical; settings: Table 4
T1 construct: whole cytoplasmic domain of c-Kit (aa 544-976); made in house; host or cells: Sf9 or High Five (baculovirus)

human EphB4 = biological target: T2, human EphB4 (Homo sapiens, UniProt P54760); experiment: Cellular assay EphB4 receptor autophosphorylation, transfected A375 cells, sandwich ELISA; type: cell-based; settings: inhibition of autophosphorylation of EphB4 kinase, Table 6
T2 construct: expressed in transfected cells; host or cells: A375 human melanoma cells (ATCC CRL-1619)
T2 sequence (P54760 16-987): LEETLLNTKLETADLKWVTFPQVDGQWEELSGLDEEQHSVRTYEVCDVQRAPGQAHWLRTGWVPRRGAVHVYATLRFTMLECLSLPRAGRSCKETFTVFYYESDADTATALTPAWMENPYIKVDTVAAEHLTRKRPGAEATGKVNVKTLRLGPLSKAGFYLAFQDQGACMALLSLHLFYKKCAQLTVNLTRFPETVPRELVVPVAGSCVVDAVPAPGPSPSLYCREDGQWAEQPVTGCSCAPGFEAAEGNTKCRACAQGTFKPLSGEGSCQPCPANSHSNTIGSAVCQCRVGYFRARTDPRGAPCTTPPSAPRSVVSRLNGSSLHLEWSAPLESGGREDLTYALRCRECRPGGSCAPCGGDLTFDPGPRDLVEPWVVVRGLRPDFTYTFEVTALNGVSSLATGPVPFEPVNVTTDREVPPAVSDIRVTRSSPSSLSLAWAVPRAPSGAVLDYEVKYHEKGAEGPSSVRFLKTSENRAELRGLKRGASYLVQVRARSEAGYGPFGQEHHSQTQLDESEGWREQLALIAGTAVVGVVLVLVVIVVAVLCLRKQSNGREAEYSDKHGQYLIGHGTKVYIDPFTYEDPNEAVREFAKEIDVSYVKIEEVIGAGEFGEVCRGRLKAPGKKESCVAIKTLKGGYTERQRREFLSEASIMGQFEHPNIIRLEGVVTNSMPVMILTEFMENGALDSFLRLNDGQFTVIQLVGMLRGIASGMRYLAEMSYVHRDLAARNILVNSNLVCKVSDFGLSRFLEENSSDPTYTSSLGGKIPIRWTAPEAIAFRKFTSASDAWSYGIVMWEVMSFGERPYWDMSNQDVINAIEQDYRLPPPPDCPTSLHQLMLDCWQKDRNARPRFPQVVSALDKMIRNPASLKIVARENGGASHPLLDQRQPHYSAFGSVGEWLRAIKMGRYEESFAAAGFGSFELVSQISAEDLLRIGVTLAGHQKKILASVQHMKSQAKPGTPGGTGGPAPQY
Procedure: The inhibition of EphB4 receptor autophosphorylation can be confirmed with an in vitro experiment in cells such as transfected A375 human melanoma cells (ATCC Number: CRL-1619), which permanently express human EphB4 (SwissProt AccNo P54760), are seeded in complete culture medium (with 10% fetal calf serum=FCS) in 6-well cell-culture plates and incubated at 37° C. under 5% CO2 until they show about 90% confluency. The compounds to be tested are then diluted in culture medium (without FCS, with 0.1% bovine serum albumin) and added to the cells. (Controls comprise medium without test compounds). Ligand induced autophosphorylation is induced by the addition of 1 microg/ml soluble ephrinB2-Fc (s-ephrinB2-Fc: R&D Biosystems, CatNr 496-EB) and 0.1 microM ortho-vanadate. After a further 20 minutes incubation at 37° C., the cells are washed twice with ice-cold PBS (phosphate-buffered saline) and immediately lysed in 200 μl lysis buffer per well. The lysates are then centrifuged to remove the cell nuclei, and the protein concentrations of the supernatants are determined using a commercial protein assay (PIERCE). The lysates can then either be immediately used or, if necessary, stored at −20° C.
A sandwich ELISA is carried out to measure the EphB4 phosphorylation: To capture phosphorylated EphB4 protein 100 ng/well of ephrinB2-Fc (s-ephrinB2-Fc: R&D Biosystems, CatNr 496-EB) is immobilized MaxiSorb (Nunc) ELISA plates. The plates are then washed and the remaining free protein-binding sites are saturated with 3% TopBlock® (Juro, Cat. # TB232010) in phosphate buffered saline with Tween 20° (polyoxyethylen(20)sorbitane monolaurate, ICI/Uniquema) (PBST). The cell lysates (100 μg protein per well) are then incubated in these plates for 1 h at room temperature. After washing the wells three times with PBS an antiphosphotyrosine antibody coupled with alkaline phosphatase (PY 20 Alkaline Phosphate conjugated: ZYMED, Cat Nr03-7722) is added and incubated for another hour. […] The difference between the signal of the positive control (stimulated with vanadate and s-ephrinB2-Fc) and that of the negative control (not stimulated) corresponds to maximal EphB4 phosphorylation (=100%). The activity of the tested substances is calculated as percent inhibition of maximal EphB4 phosphorylation, wherein the concentration of substance that induces half the maximum inhibition is defined as the IC50 (inhibitory dose for 50% inhibition). […] The mice are treated with the test compound (e.g. 25, 50 or 100 mg/kg p.o. once daily) or vehicle starting on the day of implantation of the chamber and continuing for 4 days after. At the end of the treatment, the mice are killed, and the chambers are removed. The vascularized tissue growing around the chamber is carefully removed and weighed, and the blood content is assessed by measuring the hemoglobin content of the tissue (Drabkins method; Sigma, Deisenhofen, Germany). It has been shown previously that these growth factors induce dose-dependent increases in weight and blood content of this tissue growing (characterized histologically to contain fibroblasts and small blood vessels) around the chambers and that this response is blocked by antibodies that specifically neutralize VEGF (see Wood J M et al., Cancer Res. 60(8), 2178-2189, (2000); and Schlaeppi et al., J. Cancer Res. Clin. Oncol. 125, 336-342, (1999)). With this model, inhibition can be shown in the case of compounds of the formula (I).

T1 sequence (P10721 544-976): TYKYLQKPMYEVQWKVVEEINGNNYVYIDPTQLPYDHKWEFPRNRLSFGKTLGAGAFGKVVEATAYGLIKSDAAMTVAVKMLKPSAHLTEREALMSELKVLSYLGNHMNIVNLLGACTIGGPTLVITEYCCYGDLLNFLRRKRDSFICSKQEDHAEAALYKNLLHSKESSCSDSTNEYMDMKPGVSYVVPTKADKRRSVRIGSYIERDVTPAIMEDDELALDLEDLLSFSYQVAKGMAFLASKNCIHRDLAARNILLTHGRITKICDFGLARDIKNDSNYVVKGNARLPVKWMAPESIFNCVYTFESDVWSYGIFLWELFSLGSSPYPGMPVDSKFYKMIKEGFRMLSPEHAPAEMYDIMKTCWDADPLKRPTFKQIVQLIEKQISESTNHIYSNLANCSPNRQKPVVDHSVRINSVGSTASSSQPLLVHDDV

Row | Structure (SMILES) | IC50 (c-Kit) [nM] | IC50 (human EphB4) [nM]
1 | CN1CCN(c2ccc(-c3cnn4c(N)c(-c5cccc(O)c5)cnc34)cc2)CC1 [Example 1, 3-{7-Amino-3-[4-(4-methyl-piperazin-1-yl)-phenyl]-pyrazolo[1,5-a]pyrimidin-6-yl}-phenol] | < 10000 | 
2 | Cc1nc2c(-c3cccc(N4CCN(CCO)CC4)c3)cnn2c(N)c1-c1cccc(Cl)c1 [Example 90, 2-(4-{3-[7-Amino-6-(3-chloro-phenyl)-5-methyl-pyrazolo[1,5-a]pyrimidin-3-yl]-phenyl}-piperazin-1-yl)-ethanol] |  | < 1000
3 | COc1ccc(-c2cnn3c(N)c(-c4cccc(Cl)c4)c(C)nc23)cc1OC [Example 93, 6-(3-Chloro-phenyl)-3-(3,4-dimethoxy-phenyl)-5-methyl-pyrazolo[1,5-a]pyrimidin-7-ylamine] |  | < 1000
4 | Cc1nc2c(-c3cccc(N4CCN(CCO)CC4)c3)cnn2c(N)c1-c1ccc(F)c(Cl)c1 [Example 100, 2-(4-{3-[7-Amino-6-(3-chloro-4-fluoro-phenyl)-5-methyl-pyrazolo[1,5-a]pyrimidin-3-yl]-phenyl}-piperazin-1-yl)-ethanol] |  | < 1000

Continued, values first:

Row | IC50 (c-Kit) [nM] | IC50 (human EphB4) [nM] | Structure (SMILES)
5 |  | < 1000 | Cc1nc2c(-c3cccc(N4CCN(C)CC4)c3)cnn2c(N)c1-c1ccc(F)cc1 [Example 80, 6-(4-Fluoro-phenyl)-5-methyl-3-[3-(4-methyl-piperazin-1-yl)-phenyl]-pyrazolo[1,5-a]pyrimidin-7-ylamine]
6 |  | < 1000 | Cc1nc2c(-c3ccc(N4CCN(C)CC4)cc3)cnn2c(N)c1-c1ccc(F)c(Cl)c1 [Example 83, 6-(3-Chloro-4-fluoro-phenyl)-5-methyl-3-[4-(4-methyl-piperazin-1-yl)-phenyl]-pyrazolo[1,5-a]pyrimidin-7-ylamine]
